Measured values as given in PubChem BioAssay (NCI).
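Cells were grown in 96-well plates and exposed to each compound for 48 hours at five concentrations; endpoints were interpolated linearly between bracketing concentrations, or set to the highest concentration if not reached. GI50 = concentration required for 50% inhibition of growth. TGI: concentration producing complete growth inhibition.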

Assays:
Assay in all cases: NCI-60 cell line screen, 48 h
BT-549 breast = system: BT-549 breast
SN12C renal = system: SN12C renal
IGROV1 ovarian = system: IGROV1 ovarian
UO-31 renal = system: UO-31 renal
RXF 393 renal = system: RXF 393 renal
SF-539 CNS = system: SF-539 CNS
HCC-2998 colon = system: HCC-2998 colon
U251 CNS = system: U251 CNS
HCT-116 colon = system: HCT-116 colon
MDA-MB-231 breast = system: MDA-MB-231 breast
SW-620 colon = system: SW-620 colon
NCI-H522 lung = system: NCI-H522 lung
EKVX NSCLC = system: EKVX NSCLC
NCI/ADR-RES ovarian = system: NCI/ADR-RES ovarian
MDA-MB-435 = system: MDA-MB-435
RPMI-8226 leukemia = system: RPMI-8226 leukemia
A549 NSCLC = system: A549 NSCLC
T-47D breast = system: T-47D breast
SNB-19 CNS = system: SNB-19 CNS
HS 578T breast = system: HS 578T breast
MCF7 breast = system: MCF7 breast
SF-268 CNS = system: SF-268 CNS
A498 renal = system: A498 renal
HOP-62 NSCLC = system: HOP-62 NSCLC
SK-OV-3 ovarian = system: SK-OV-3 ovarian
HT29 colon = system: HT29 colon
OVCAR-5 ovarian = system: OVCAR-5 ovarian
COLO 205 colon = system: COLO 205 colon
M14 melanoma = system: M14 melanoma
UACC-257 melanoma = system: UACC-257 melanoma
OVCAR-4 ovarian = system: OVCAR-4 ovarian
CCRF-CEM leukemia = system: CCRF-CEM leukemia
LOX IMVI melanoma = system: LOX IMVI melanoma
PC-3 prostate = system: PC-3 prostate
HOP-92 NSCLC = system: HOP-92 NSCLC
NCI-H23 lung = system: NCI-H23 lung
OVCAR-8 ovarian = system: OVCAR-8 ovarian
SF-295 CNS = system: SF-295 CNS
SK-MEL-2 melanoma = system: SK-MEL-2 melanoma
SK-MEL-28 melanoma = system: SK-MEL-28 melanoma
SK-MEL-5 melanoma = system: SK-MEL-5 melanoma
786-0 renal = system: 786-0 renal
SNB-75 CNS = system: SNB-75 CNS
CAKI-1 renal = system: CAKI-1 renal
UACC-62 melanoma = system: UACC-62 melanoma
DU-145 prostate = system: DU-145 prostate
NCI-H226 lung = system: NCI-H226 lung
HCT-15 colon = system: HCT-15 colon
NCI-H460 lung = system: NCI-H460 lung
OVCAR-3 ovarian = system: OVCAR-3 ovarian
TK-10 renal = system: TK-10 renal
ACHN renal = system: ACHN renal
MALME-3M melanoma = system: MALME-3M melanoma
KM12 colon = system: KM12 colon
K-562 leukemia = system: K-562 leukemia
MOLT-4 leukemia = system: MOLT-4 leukemia

## Nc1ncc2ccc3c(ccn3C3CC(O)C(CO)O3)c2n1 (configuration not stated)
BT-549 breast
  GI50: > 100 µM
  TGI: > 100 µM
SN12C renal
  GI50: > 100 µM
  TGI: > 100 µM
IGROV1 ovarian
  GI50: > 100 µM
  TGI: > 100 µM
UO-31 renal
  GI50: > 100 µM
  TGI: > 100 µM
RXF 393 renal
  GI50: > 100 µM
  TGI: > 100 µM
SF-539 CNS
  GI50: > 100 µM
  TGI: > 100 µM
HCC-2998 colon
  GI50: > 100 µM
  TGI: > 100 µM
U251 CNS
  GI50: > 100 µM
  TGI: > 100 µM
HCT-116 colon
  GI50: > 100 µM
  TGI: > 100 µM
MDA-MB-231 breast
  GI50: > 100 µM
  TGI: > 100 µM
SW-620 colon
  GI50: > 100 µM
  TGI: > 100 µM
NCI-H522 lung
  GI50: > 100 µM
  TGI: > 100 µM
EKVX NSCLC
  GI50: > 100 µM
  TGI: > 100 µM
NCI/ADR-RES ovarian
  GI50: > 100 µM
  TGI: > 100 µM
MDA-MB-435
  GI50: > 100 µM
  TGI: > 100 µM
RPMI-8226 leukemia
  GI50: > 100 µM
  TGI: > 100 µM
A549 NSCLC
  GI50: > 100 µM
  TGI: > 100 µM
T-47D breast
  GI50: > 100 µM
  TGI: > 100 µM
SNB-19 CNS
  GI50: > 100 µM
  TGI: > 100 µM
HS 578T breast
  GI50: > 100 µM
  TGI: > 100 µM
MCF7 breast
  GI50: 87.2 µM
  TGI: > 100 µM
SF-268 CNS
  GI50: > 100 µM
  TGI: > 100 µM
A498 renal
  GI50: 18.3 µM
  TGI: > 100 µM
HOP-62 NSCLC
  GI50: > 100 µM
  TGI: > 100 µM
SK-OV-3 ovarian
  GI50: > 100 µM
  TGI: > 100 µM
HT29 colon
  GI50: > 100 µM
  TGI: > 100 µM
OVCAR-5 ovarian
  GI50: > 100 µM
  TGI: > 100 µM
COLO 205 colon
  GI50: > 100 µM
  TGI: > 100 µM
M14 melanoma
  GI50: > 100 µM
  TGI: > 100 µM
UACC-257 melanoma
  GI50: > 100 µM
  TGI: > 100 µM
OVCAR-4 ovarian
  GI50: > 100 µM
  TGI: > 100 µM
CCRF-CEM leukemia
  GI50: > 100 µM
  TGI: > 100 µM
LOX IMVI melanoma
  GI50: > 100 µM
  TGI: > 100 µM
PC-3 prostate
  GI50: > 100 µM
  TGI: > 100 µM
HOP-92 NSCLC
  GI50: > 100 µM
  TGI: > 100 µM
NCI-H23 lung
  GI50: > 100 µM
  TGI: > 100 µM
OVCAR-8 ovarian
  GI50: > 100 µM
  TGI: > 100 µM
SF-295 CNS
  GI50: > 100 µM
  TGI: > 100 µM
SK-MEL-2 melanoma
  GI50: > 100 µM
  TGI: > 100 µM
SK-MEL-28 melanoma
  GI50: > 100 µM
  TGI: > 100 µM
SK-MEL-5 melanoma
  GI50: > 100 µM
  TGI: > 100 µM
786-0 renal
  GI50: > 100 µM
  TGI: > 100 µM
SNB-75 CNS
  GI50: 42.4 µM
  TGI: > 100 µM
CAKI-1 renal
  GI50: > 100 µM
  TGI: > 100 µM
UACC-62 melanoma
  GI50: > 100 µM
  TGI: > 100 µM
DU-145 prostate
  GI50: > 100 µM
  TGI: > 100 µM
NCI-H226 lung
  GI50: > 100 µM
  TGI: > 100 µM
HCT-15 colon
  GI50: > 100 µM
  TGI: > 100 µM
NCI-H460 lung
  GI50: > 100 µM
  TGI: > 100 µM
OVCAR-3 ovarian
  GI50: > 100 µM
  TGI: > 100 µM

## CO[C@@H]1[C@H](O)CC[C@]2(CO2)[C@H]1[C@@]1(C)O[C@@H]1CC=C(C)C
BT-549 breast
  TGI: > 200 µM
TK-10 renal
  TGI: > 200 µM
SN12C renal
  TGI: > 200 µM
IGROV1 ovarian
  TGI: > 200 µM
UO-31 renal
  TGI: > 200 µM
RXF 393 renal
  TGI: > 200 µM
SF-539 CNS
  TGI: > 200 µM
U251 CNS
  TGI: > 200 µM
HCT-116 colon
  TGI: > 200 µM
MDA-MB-231 breast
  TGI: > 200 µM
SW-620 colon
  TGI: > 200 µM
NCI-H522 lung
  TGI: > 200 µM
EKVX NSCLC
  TGI: > 200 µM
NCI/ADR-RES ovarian
  TGI: > 200 µM
MDA-MB-435
  TGI: > 200 µM
RPMI-8226 leukemia
  TGI: > 200 µM
T-47D breast
  TGI: > 200 µM
SNB-19 CNS
  TGI: > 200 µM
HS 578T breast
  TGI: > 200 µM
MCF7 breast
  TGI: > 200 µM
SF-268 CNS
  TGI: > 200 µM
A498 renal
  TGI: > 200 µM
HOP-62 NSCLC
  TGI: > 200 µM
ACHN renal
  TGI: > 200 µM
SK-OV-3 ovarian
  TGI: > 200 µM
HT29 colon
  TGI: > 200 µM
MALME-3M melanoma
  TGI: > 200 µM
OVCAR-5 ovarian
  TGI: > 200 µM
COLO 205 colon
  TGI: > 200 µM
M14 melanoma
  TGI: > 200 µM
OVCAR-4 ovarian
  TGI: > 200 µM
CCRF-CEM leukemia
  TGI: > 200 µM
LOX IMVI melanoma
  TGI: > 200 µM
PC-3 prostate
  TGI: > 200 µM
HOP-92 NSCLC
  TGI: > 200 µM
KM12 colon
  TGI: > 200 µM
NCI-H23 lung
  TGI: > 200 µM
K-562 leukemia
  TGI: > 200 µM
MOLT-4 leukemia
  TGI: > 200 µM
SF-295 CNS
  TGI: > 200 µM
SK-MEL-2 melanoma
  TGI: > 200 µM
SK-MEL-28 melanoma
  TGI: > 200 µM
SK-MEL-5 melanoma
  TGI: > 200 µM
786-0 renal
  TGI: > 200 µM
SNB-75 CNS
  TGI: > 200 µM
CAKI-1 renal
  TGI: > 200 µM
UACC-62 melanoma
  TGI: > 200 µM
DU-145 prostate
  TGI: > 200 µM
NCI-H226 lung
  TGI: > 200 µM
HCT-15 colon
  TGI: > 200 µM
NCI-H460 lung
  TGI: > 200 µM
OVCAR-3 ovarian
  TGI: > 200 µM
